In article PMC8779152, “A “Double-Locked” and Enzyme/pH-Activated Theranostic Agent for Accurate Tumor Imaging and Therapy” (Molecules, 2022):

Biological target: HDAC1 (Homo sapiens, UniProt Q13547)
Test: HDAC1 enzyme inhibition (assay details not given)
Type: biochemical

Chain of HDAC1 (Q13547 whole entry): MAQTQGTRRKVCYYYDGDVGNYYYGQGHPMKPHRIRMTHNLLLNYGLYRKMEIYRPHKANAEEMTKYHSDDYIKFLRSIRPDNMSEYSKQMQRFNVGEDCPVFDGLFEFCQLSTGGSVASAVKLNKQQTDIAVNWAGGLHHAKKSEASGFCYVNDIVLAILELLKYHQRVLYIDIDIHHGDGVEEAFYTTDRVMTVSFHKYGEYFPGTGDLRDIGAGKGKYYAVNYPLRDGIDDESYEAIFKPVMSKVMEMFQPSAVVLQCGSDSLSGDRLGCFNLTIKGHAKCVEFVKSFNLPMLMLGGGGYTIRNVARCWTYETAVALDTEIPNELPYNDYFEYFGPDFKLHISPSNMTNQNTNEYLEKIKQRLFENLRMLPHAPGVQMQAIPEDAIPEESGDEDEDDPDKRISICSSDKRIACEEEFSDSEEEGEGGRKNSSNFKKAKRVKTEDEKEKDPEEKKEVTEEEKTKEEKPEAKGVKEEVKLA

SMILES	IC50 [nM]
Nc1ccc(-c2nc(NCc3ccc(C(=O)NO)cc3)cc3c2[nH]c2ccccc23)cc1 [H6AQ]	41 ± 5
O=C(NO)c1ccc(CNc2cc3c([nH]c4ccccc43)c(-c3ccc([N+](=O)[O-])cc3)n2)cc1 [H6M]	65 ± 6
